From US7060726B2, “Antibacterial agent” (Takasago International Corporation, priority 2001, dated 2006) come the findings set out here.

Holding throughout (format): cell-based
In experiment [1] the test system is Actinomyces naeslundii JCM 8350. Put plainly: MIC, agar medium dilution method (Trypticase Soy Agar). As to conditions: (b) Actinomyces naeslundii, 37° C., 72 hours. The procedure: (§1) Test for Antibacterial Ability (Measurement of Minimum Inhibitory Concentration (MIC) Using an Agar Medium Dilution Method)
(§2) The samples shown below were dissolved in ethanol to prepare a serial twofold dilution stage and 100 μL of each was added to 10 mL of a sterilized agar medium (Trypticase Soy Agar (BBL)), which was then stirred sufficiently, then transferred to a 9-cm-diameter Petri dish and solidified at ambient temperature. 5 μL of a diluted test bacteria (shown below) solution was implanted in the Petri dish and cultured at 37° C. for 72 hours. After the culturing was finished, the growth state of the medium in this Petri dish was compared with that in a Petri dish (blank) containing no sample and the concentration of the sample in which the growth of bacteria was not seen was defined as MIC.

The subject of experiment [2] is Actionmyces viscosus JCM 8352. Described as above. The note with it: (c) Actionmyces viscosus, 37° C., 72 hours. The procedure: as §1, §2
The subject of experiment [3] is Fusobacterium nuclestum JCM 6328. Described as above. As to conditions: (d) Fusobacterium nuclestum, 37° C., 72 hours. The procedure:
as §1, §2

The test system of experiment [4] is Porphyromonas gingivalis JCM 8525. The experiment is described as above. As to conditions: (f) Porphyromonas gingivalis, 37° C., 72 hours. The procedure: as §1, §2
For experiment [5], the system named is Prevotella intermedia JCM 6322. Described as above. As to conditions: (e) Prevotella intermedia, 37° C., 72 hours. The procedure:
as §1, §2

In experiment [6] the test system is Streptococcus mutans JCM 5175. The experiment is described as above. As to conditions: (a) Streptococcus mutans, 37° C., 72 hours. The procedure: as §1, §2
The test system of experiment [7] is Bacillus subtilis PCI 219 IFO 3134. The experiment is described as follows: MIC, agar medium dilution method (Mueller Hinton medium), qualification test method 1. As to conditions: method 1, agar, 37° C., 72 hours. The procedure: as §2, with “Test for Antibacterial Ability (Measurement of Minimum Inhibitory Concentration (MIC) Using an Agar Medium Dilution Method) Measurement of Minimum Inhibitory Concentration (MIC) Using an Agar Medium Dilution Method The” for “The”, “(Mueller Hinton medium (Difco)),” for “(Trypticase Soy Agar (BBL)),”, “bacteria” for “bacteria (shown below)”, “minimum inhibitory concentration (MIC).” for “MIC.”

Experiment [8] concerns Staphylococcus aureus 209P IAM 12082. Described as above. As to conditions: method 1, agar, 37° C., 72 hours. The procedure: as §2, with “Test for Antibacterial Ability (Measurement of Minimum Inhibitory Concentration (MIC) Using an Agar Medium Dilution Method) Measurement of Minimum Inhibitory Concentration (MIC) Using an Agar Medium Dilution Method The” for “The”, “(Mueller Hinton medium (Difco)),” for “(Trypticase Soy Agar (BBL)),”, “bacteria” for “bacteria (shown below)”, “minimum inhibitory concentration (MIC).” for “MIC.”

Experiment [9] has as its system Staphylococcus aureus ATCC 6538. The description is as above. As to conditions: method 1, agar, 37° C., 72 hours. The method, then:
as §2, with “Test for Antibacterial Ability (Measurement of Minimum Inhibitory Concentration (MIC) Using an Agar Medium Dilution Method) Measurement of Minimum Inhibitory Concentration (MIC) Using an Agar Medium Dilution Method The” for “The”, “(Mueller Hinton medium (Difco)),” for “(Trypticase Soy Agar (BBL)),”, “bacteria” for “bacteria (shown below)”, “minimum inhibitory concentration (MIC).” for “MIC.”

Experiment [10] concerns Staphylococcus epidermides JCM 2414. The experiment is described as follows: MIC, agar medium dilution method (Mueller Hinton medium). The note with it: (f) Staphylococcus epidermides, 37° C., 72 hours. The procedure: as §2, with “Test for Antibacterial Ability (Measurement of Minimum Inhibitory Concentration (MIC) Using an Agar Medium Dilution Method) The” for “The”, “samples” for “samples shown below”, “medium,” for “medium (Trypticase Soy Agar (BBL)),”, “bacteria” for “bacteria (shown below)”, “minimum inhibitory concentration (MIC). (f) Staphylococcus epidermides JCM 2414 (g) Corynebacterium minutissimum IFO 15361 • Mueller Hinton medium (Difco) in these cases Sample” for “MIC.”

Experiment [11] deals with Corynebacterium minutissimum IFO 15361. The experiment is described as above. As to conditions: (g) Corynebacterium minutissimum, 37° C., 72 hours. The procedure: as §2, with “Test for Antibacterial Ability (Measurement of Minimum Inhibitory Concentration (MIC) Using an Agar Medium Dilution Method) The” for “The”, “samples” for “samples shown below”, “medium,” for “medium (Trypticase Soy Agar (BBL)),”, “bacteria” for “bacteria (shown below)”, “minimum inhibitory concentration (MIC). (g) Corynebacterium minutissimum IFO 15361 • Mueller Hinton medium (Difco) in these cases Sample” for “MIC.”

Experiment [12] has as its system Corynebacterium xerosis JCM 1324. Described as above. The note with it: (d) Corynebacterium xerosis, 37° C., 72 hours. The method, then: as §2, with “Test for Antibacterial Ability (Measurement of Minimum Inhibitory Concentration (MIC) Using an Agar Medium Dilution Method) The” for “The”, “samples” for “samples shown below”, “medium,” for “medium (Trypticase Soy Agar (BBL)),”, “bacteria” for “bacteria (shown below)”, “minimum inhibitory concentration (MIC). (d) Corynebacterium xerosis JCM 1324 (g) Corynebacterium minutissimum IFO 15361 • Mueller Hinton medium (Difco) in these cases Sample” for “MIC.”

Experiment [13] concerns Malassezia furfur IFO 0656. The description is as above. As to conditions: (e) Malassezia furfur, 37° C., 72 hours. The procedure:
as §2, with “Test for Antibacterial Ability (Measurement of Minimum Inhibitory Concentration (MIC) Using an Agar Medium Dilution Method) The” for “The”, “samples” for “samples shown below”, “medium,” for “medium (Trypticase Soy Agar (BBL)),”, “bacteria” for “bacteria (shown below)”, “minimum inhibitory concentration (MIC). (e) Malassezia furfur IFO 0656 (g) Corynebacterium minutissimum IFO 15361 • Mueller Hinton medium (Difco) in these cases Sample” for “MIC.”

The subject of experiment [14] is Bacillus subtilis PCI 219. Put plainly: MIC, agar medium dilution method. The note with it: 37° C., 72 hours. The procedure: as §2, with “Test for Antibacterial Ability (Measurement of Minimum Inhibitory Concentration (MIC) Using an Agar Medium Dilution Method) The” for “The”, “samples” for “samples shown below”, “medium,” for “medium (Trypticase Soy Agar (BBL)),”, “bacteria” for “bacteria (shown below)”, “minimum inhibitory concentration (MIC).” for “MIC.”

In experiment [15] the test system is Propionibacterium acnes JCM 6473. The experiment is described as follows: MIC, agar medium dilution method (Trypticase Soy Agar). The note with it: (a) Propionibacterium acnes JCM 6473, 37° C., 72 hours. The procedure: as §2, with “Test for Antibacterial Ability (Measurement of Minimum Inhibitory Concentration (MIC) Using an Agar Medium Dilution Method) The” for “The”, “samples” for “samples shown below”, “medium,” for “medium (Trypticase Soy Agar (BBL)),”, “bacteria” for “bacteria (shown below)”, “minimum inhibitory concentration (MIC). (a) Propionibacterium acnes JCM 6473 (c) Bacteriodes fragilis GAI 5560 • Trypticase Soy Agar (BBL) in these cases” for “MIC.”

In experiment [16] the test system is Propionibacterium acnes ATCC 6919. The experiment is described as above. The note with it: (b) Propionibacterium acnes ATCC 6919, 37° C., 72 hours. The method, then: as §2, with “Test for Antibacterial Ability (Measurement of Minimum Inhibitory Concentration (MIC) Using an Agar Medium Dilution Method) The” for “The”, “samples” for “samples shown below”, “medium,” for “medium (Trypticase Soy Agar (BBL)),”, “bacteria” for “bacteria (shown below)”, “minimum inhibitory concentration (MIC). (b) Propionibacterium acnes ATCC 6919 (c) Bacteriodes fragilis GAI 5560 • Trypticase Soy Agar (BBL) in these cases” for “MIC.”

Experiment [17] relates to Bacteriodes fragilis GAI 5560. Described as above. The note with it: (c) Bacteriodes fragilis, 37° C., 72 hours. The procedure: as §2, with “Test for Antibacterial Ability (Measurement of Minimum Inhibitory Concentration (MIC) Using an Agar Medium Dilution Method) The” for “The”, “samples” for “samples shown below”, “medium,” for “medium (Trypticase Soy Agar (BBL)),”, “bacteria” for “bacteria (shown below)”, “minimum inhibitory concentration (MIC). (c) Bacteriodes fragilis GAI 5560 • Trypticase Soy Agar (BBL) in these cases” for “MIC.”

Experiment [18] concerns Staphylococcus aureus ATCC6538. Put plainly: MIC and MBC, liquid medium dilution method (NYG medium), qualification method 2. The note with it: method 2, liquid medium. The method, then: (§3) Measurements of MIC and Minimum Bactericidal Concentration (MBC) by Using a Liquid Medium Dilution Method
(§4) The serial twofold dilution solution of the sample is prepared in the same manner as in the agar medium dilution method. 30 μL of the sample solution having each concentration is added to 3 mL of a liquid medium (NYG medium), to which is further added 60 μL of a test bacteria solution and the medium is cultured at 30° C. for 48 hours.
(§5) A change of the turbidity of the medium is measured using a wavelength of 660 nm to find MIC. The media 60 μL each are taken out from a test tube in which no growth of the bacteria is found and implanted in 3 mL of a new medium and cultured for 48 hours. The minimum concentration at which no growth of the bacteria was observed is defined MBC.

Experiment [19] relates to Staphylococcus aureus IAM12082. The description is as above. The note with it: method 2, liquid medium. The procedure: as §3, §4, §5
A further experiment relates to Staphylococcus aureus. Put plainly: Conclusion from the measurement of MBC (liquid medium dilution method). As to conditions: from the results of the measurement of MBC (Table 4). The method, then:
as §3, §4, §5

On to `CCCCOC(=O)c1ccc(O)cc1` [Sample C-2, Butylparabene], for which the MIC in experiment [1] came out at 100 ppm; in experiment [2], 100 ppm; in experiment [3], 100 ppm; in experiment [4] it was 50 ppm; in experiment [5], 100 ppm; in experiment [6], 200 ppm. Also, the MIC in experiment [7] is on record as 200 ppm; in experiment [8], 100 ppm; in experiment [9], 200 ppm. The “Minimum inhibitory concentration (MIC)” value in experiment [10] is recorded as 200 ppm; in [11], 200 ppm; in [12], 50 ppm; in [13] it was 100 ppm; in experiment [14] it was 200 ppm; in experiment [15], 100 ppm. Also, the figures for the “Minimum inhibitory concentration (MIC)” value in experiment [16] and in experiment [17] were 100 ppm and 50 ppm, respectively.
As for `Oc1cc(Cl)ccc1Oc1ccc(Cl)cc1Cl` [Sample C-1, Trichlosane], the MIC in [1] amounted to 3.1 ppm; in [2] it was 3.1 ppm; in [3] it was 3.1 ppm; in [4], 3.1 ppm; in [5] it was 3.1 ppm; in [6], 6.3 ppm. The MIC in [18] (30° C., 48 hours) is 0.977 ppm; in experiment [19] (30° C., 48 hours), 0.244 ppm. The MBC in [18] amounted to 1.95 ppm; in experiment [19], 0.977 ppm. In the experiment with Staphylococcus aureus, the “bactericidal or bacteriostatic action” value was “strong bactericidal activity”.
